Measurements published in patent US20250042881A1, “CCR6 RECEPTOR MODULATORS” (Idorsia Pharmaceuticals Ltd, priority 2021, published 2025).

molecular target: T1, human CCR6 (Homo sapiens, UniProt P51684); assay: FLIPR assay: inhibition of CCL20-induced calcium signal in HEK-293 cells expressing human CCR6; type: cell-based; details: engineered HEK-293 cells expressing human CCR6; agonist CCL20 10 nM; 30 min preincubation; Fluo-8-AM; mean values if determined several times
T1 construct: expressed in transfected cells; host or cells: HEK-293
T1 sequence (P51684 1-374): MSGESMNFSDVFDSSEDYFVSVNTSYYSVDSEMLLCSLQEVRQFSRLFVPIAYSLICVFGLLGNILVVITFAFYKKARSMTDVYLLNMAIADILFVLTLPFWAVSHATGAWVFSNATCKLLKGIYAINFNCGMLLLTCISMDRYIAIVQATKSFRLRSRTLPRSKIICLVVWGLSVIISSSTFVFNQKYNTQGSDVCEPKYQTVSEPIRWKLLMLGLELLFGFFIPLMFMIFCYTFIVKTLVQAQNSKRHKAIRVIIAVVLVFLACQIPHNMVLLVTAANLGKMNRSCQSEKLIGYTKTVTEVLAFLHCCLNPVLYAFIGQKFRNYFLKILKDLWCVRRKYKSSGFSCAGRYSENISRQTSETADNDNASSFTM
Description: FLIPR assay: The bioactivity of compounds is tested in a fluorometric imaging plate reader (FLIPR: Molecular Devices) using engineered HEK-293 cells expressing the human CCR6 (GenBank: AY242126). Frozen cells are plated on Poly-L-Lysine precoated 384-well plates 2 days prior to bioassay in DMEM medium supplemented with 10% FCS and 1% Penicillin-Streptomycin. At the day of bioassay, cell supernatant is discarded and cells are dye loaded for 30 minutes at room temperature in the dark with Fluo-8-AM (Focus Biomolecules) in Hanks Balanced Salt Solution (Gibco), buffered with 20 mM Hepes at pH 6.75 and supplemented with 0.05% BSA. This buffer, but lacking the dye, is also used for washing and compound dilution steps (assay buffer). Cells are washed free of excess dye with a wash-station (Biotek), leaving 40 microliter of assay buffer at the end. Cells were incubated for 15 minutes at room temperature in the dark, before adding compounds. Stock solutions of test compounds are made up at a concentration of 10 mM in DMSO, and serially diluted first in DMSO and then transferred in assay buffer to concentrations required for inhibition dose response curves. After a 45 minute incubation period in assay buffer at room temperature, 10 microliters of each compound dilution are transferred from a compound plate to the plate containing the recombinant cells in the FLIPR instrument according to the manufacturer's instructions. After cells and compounds were preincubated for 30 minutes at room temperature in the dark, 10 microliter agonist CCL20 (Peprotech) at a final concentration of 10 nM is added, again using the FLIPR instrument. Changes in fluorescence are monitored before and after addition of the test compounds and agonist. Emission peak values above base level after CCL20 addition are exported after base line subtraction. The calculated IC50 values may fluctuate depending on the daily assay performance. Fluctuations of this kind are known to those skilled in the art. In the case where IC50 values have been determined several times for the same compound, mean values are given.

Structure (SMILES)	IC50
COCCn1nc(-c2cncc([C@@](O)(c3ccc(C(C)C)cc3)C3(C)CN(C)C3)c2)nc1C1CCOCC1 [Example 48, (R)-(1,3-Dimethyl-azetidin-3-yl)-(4-isopropyl-phenyl)-{5-[1-(2-methoxy-ethyl)-5-(tetrahydro-pyran-4-yl)-1H-[1,2,4]triazol-3-yl]-pyridin-3-yl}-methanol]	170 nM
CC(C)c1ccc([C@](O)(c2cncc(-c3nc(-c4cccnc4)n(C4CC4)n3)c2)C2(C)CN(C)C2)cc1 [Example 24, (R)-[5-(1-Cyclopropyl-5-pyridin-3-yl-1H-[1,2,4]triazol-3-yl)-pyridin-3-yl]-(1,3-dimethyl-azetidin-3-yl)-(4-isopropyl-phenyl)-methanol]	50.1 nM
CC(C)c1ccc([C@](O)(c2cncc(-c3nc(C45CC(CO)(C4)C5)n(C4CC4)n3)c2)C2(C)CN(C)C2)cc1 [Example 28, (R)-{5-[1-Cyclopropyl-5-(3-hydroxymethyl-bicyclo[1.1.1]pent-1-yl)-1H-[1,2,4]triazol-3-yl]-pyridin-3-yl}-(1,3-dimethyl-azetidin-3-yl)-(4-isopropyl-phenyl)-methanol]	61.1 nM
CCCc1nc(-c2cncc([C@@](O)(c3ccc(C(C)C)cc3)C3(C)CN(C)C3)c2)nn1C(C)C [Example 41, (R)-(1,3-Dimethyl-azetidin-3-yl)-(4-isopropyl-phenyl)-[5-(1-isopropyl-5-propyl-1H-[1,2,4]triazol-3-yl)-pyridin-3-yl]-methanol]	45.3 nM
CN1CC(C)([C@](O)(c2ccc(CC(F)(F)F)cc2)c2cncc(-c3nc(C4CCOCC4)n(C4CC4)n3)c2)C1 [Example 5, (R)-{5-[1-Cyclopropyl-5-(tetrahydro-pyran-4-yl)-1H-[1,2,4]triazol-3-yl]-pyridin-3-yl}-(1,3-dimethyl-azetidin-3-yl)-[4-(2,2,2-trifluoro-ethyl)-phenyl]-methanol]	182 nM
CC(C)c1ccc([C@](O)(c2cncc(-c3nc(C4CCOCC4)n(C4CC4)n3)c2)C2(C)CN(C(C)C)C2)cc1 [Example 34, (R)-{5-[1-Cyclopropyl-5-(tetrahydro-pyran-4-yl)-1H-[1,2,4]triazol-3-yl]-pyridin-3-yl}-(1-isopropyl-3-methyl-azetidin-3-yl)-(4-isopropyl-phenyl)-methanol]	63.8 nM
CN1CC(C)([C@](O)(c2ccc(C3(C(F)(F)F)CC3)cc2)c2cncc(-c3nc(C4CCOCC4)n(C4CC4)n3)c2)C1 [Example 3, (R)-{5-[1-Cyclopropyl-5-(tetrahydro-pyran-4-yl)-1H-[1,2,4]triazol-3-yl]-pyridin-3-yl}-(1,3-dimethyl-azetidin-3-yl)-[4-(1-trifluoromethyl-cyclopropyl)-phenyl]-methanol]	49.8 nM
CC(C)c1ccc([C@](O)(c2cncc(-c3nc(C4CCOCC4)n(C4CC4)n3)c2)C2(C)CN(C3CC3)C2)cc1 [Example 49, (R)-(1-Cyclopropyl-3-methyl-azetidin-3-yl)-{5-[1-cyclopropyl-5-(tetrahydro-pyran-4-yl)-1H-[1,2,4]triazol-3-yl]-pyridin-3-yl}-(4-isopropyl-phenyl)-methanol]	55.8 nM
CC(C)c1ccc([C@](O)(c2cncc(-c3nc(C4CCN(C(=O)CO)CC4)n(C(C)C)n3)c2)C2(C)CN(C)C2)cc1 [Example 44, 1-[4-(5-{5-[(R)-(1,3-Dimethyl-azetidin-3-yl)-hydroxy-(4-isopropyl-phenyl)-methyl]-pyridin-3-yl}-2-isopropyl-2H-[1,2,4]triazol-3-yl)-piperidin-1-yl]-2-hydroxy-ethanone]	199 nM
CC(C)c1ccc([C@](O)(c2cncc(-c3nc(C4(O)CCOCC4)n(C4CC4)n3)c2)C2(C)CN(C)C2)cc1 [Example 30, 4-(2-Cyclopropyl-5-{5-[(R)-(1,3-dimethyl-azetidin-3-yl)-hydroxy-(4-isopropyl-phenyl)-methyl]-pyridin-3-yl}-2H-[1,2,4]triazol-3-yl)-tetrahydro-pyran-4-ol]	98.1 nM
